Legend:
HT-1376 cells = assay: MTT assay, cytotoxicity towards HT-1376 bladder cancer cells; assay type: cell-based, human
Experimental: (§1) Human urinary bladder grade II carcinoma cell line (5637), human urinary bladder carcinoma (HT-1376), and human lung fibroblasts (MRC-5) were purchased from ATCC (Manassas, VA, USA). The 5637 cells were grown in RPMI, HT-1376 cells were cultured in EMEM, and MRC-5 in DMEM. All media were supplemented with 10% (v/v) FBS, 2 mM L-glutamine, 100 U/mL penicillin, and […] streptomycin (1% v/v). The cells were cultured at 37 °C in a humidified atmosphere with 5% CO2.
(§2) Tested compounds were dissolved in DMSO at a concentration of 10 mM for preliminary study. […] Stock solutions were stored in the dark at -20 °C.
(§3) For the preliminary experiments, the 5637 cells were used. The compounds were prepared in the cell culture medium at a concentration of 0.1 µM, 1 µM, and 10 µM. DMSO was used as a control. […] Cells were treated with compounds for 24, 48, and 72 h. Cells were washed twice with DPBS, and 170 µL of MTT solution at a final concentration of 0.59 mg/mL in culture medium was added. Cells were incubated with MTT solution for 1.5 h at standard cell culture conditions. After incubation, MTT was removed, and formazan crystals were dissolved with 200 µL DMSO. The absorbance was measured at a wavelength of 570 nm using a plate reader (Biotek Instruments, Elx-800, Winooski, VT, USA).
(§4) Subsequently, cells were treated with compound 4a at a concentration of 0.5 µM, 1 µM, 2 µM, 4 µM, 6 µM, and 8 µM and compound 5b at a concentration range of 2 µM, 4 µM, 6 µM, 8 µM,10 µM, and 15 µM for 24 h and 48 h. […] The MTT assay was performed as described above.
(§5) The IC50 values were calculated using the GraphPad Prism 8 software (GraphPad Software, Inc., La Jolla, CA, USA), and cell viability was expressed as a percentage of the control. At least three biological replicates were performed for each compound.

MRC-5 cells = assay: MTT assay, cytotoxicity towards non-cancerous MRC-5 fibroblasts; assay type: cell-based, human; settings: for IC50: Homo sapiens, MTT; for effect on viability of MRC-5 cells: all tested concentrations (2-15 µM), 24 and 48 h
Experimental: as §1, §2, §3, §4, §5

[1] = as above; assay type: cell-based, human; settings: human, MRC-5 lung fibroblasts, MRC-5 cells, 24 h, read-out: cell viability
Experimental: as §1, §2, §3, §4, §5

5637 cells = assay: MTT assay, cytotoxicity towards 5637 bladder cancer cells; assay type: cell-based, human; settings: for IC50: Homo sapiens, MTT; for cell viability: preliminary experiment (10 µM implied)
Experimental: as §1, §2, §3, §4, §5

Aliivibrio fischeri = settings: 10 µM
Experimental: All the synthesized derivatives were subjected to the Microtox test. […] The acute toxicity of the tested compounds was measured using the Microtox test. For the measurements, the 81.9% screening test procedure was applied using the Microtox [MUT] apparatus along with the Microtox Omni 4.2 software supplied by the manufacturer (Modern Water plc). Briefly, the bioluminescence of bacterial suspension was measured before the addition of the solution of the tested compound and after 5 and 15 min upon exposure. […] As the control, 2% sodium chloride solution was used (Modern Water Microtox Diluent).

[2] = Homo sapiens, HT-1376, 24 h, 24 h
[3] = Homo sapiens, HT-1376, 48 h, 48 h

| SMILES | IC50 (HT-1376 cells; 24 h) | IC50 (HT-1376 cells; [2]) | IC50 (HT-1376 cells; [3]) | IC50 (MRC-5 cells; MRC5, 24 h) | IC50 (MRC-5 cells; MRC5, 48 h) | viability at 24 h, 6 µM ([1]; 6 µM) | viability at 24 h, 8 µM ([1]; 8 µM) | IC50 (5637 cells; 24 h) | IC50 (5637 cells; 48 h) | cell viability (5637 cells; 48 h of incubation) | cell viability (5637 cells; 72 h of incubation) | effect on viability of MRC-5 cells (MRC-5 cells) | effect on viability of MRC-5 cells (MRC-5 cells; listed as flavone derivative with 7-(2-methyl-5-phenylpyrrol-1-yl)) | effect on viability of cancer cells (5637 cells; 10 µM) | decrease in bioluminescence (Aliivibrio fischeri) |
| --- | --- | --- | --- | --- | --- | --- | --- | --- | --- | --- | --- | --- | --- | --- | --- |
| Cc1ccc(-c2ccccc2)n1-c1ccc2oc(-c3ccccc3)cc(=O)c2c1 [4b, 6-(2-Methyl-5-phenylpyrrol-1-yl)-2-phenylchromen-4-one] | 5.89 ± 1.1 µM | ~5 µM | 5.37 ± 1.44 µM | > 8 µM | 5.21 ± 0.1 µM | 57% | 52% | 2.97 ± 0.17 µM | 2.12 ± 0.19 µM |  |  |  |  |  |  |
| Cc1ccc(C)n1-c1ccc2c(=O)cc(-c3ccccc3)oc2c1 [5a, 7-(2,5-Dimethylpyrrol-1-yl)-2-phenylchromen-4-one] |  |  |  |  |  |  |  |  |  | 75.8% | 48% |  |  |  |  |
| Cc1ccc(-c2ccccc2)n1-c1ccc2c(=O)cc(-c3ccccc3)oc2c1 [5b, 7-(2-Methyl-5-phenylpyrrol-1-yl)-2-phenylchromen-4-one] | 13.5 ± 1.41 µM | ~13 µM | 11.7 ± 1.74 µM | > 15 µM | > 15 µM |  |  | 7.39 ± 2.02 µM | 4.61 ± 0.1 µM |  |  | did not decrease cell viability | without any effect |  |  |
| Cc1ccc(C)n1-c1ccc2oc(-c3ccccc3)cc(=O)c2c1 [4a, 6-(2,5-Dimethylpyrrol-1-yl)-2-phenylchromen-4-one] |  |  |  |  |  |  |  |  |  |  |  |  |  | did not affect the viability | 80% |
